Measured values reported in PubChem BioAssay AID248 (DTP/NCI, 2004).
Several values for one entry are separate records, joined by “and”; a condition that tells them apart may be missing. Equal entries are not always repeated. Inconclusive results and toxic doses are left out. No stated cut-off is given here; in the data, active means T/C of 150% or more; inactive means T/C below 125%.

System: L1210 leukemia ip in BDF1 mice, survival T/C
Test: NCI In Vivo Anticancer Drug Screen. Data for tumor model L1210 Leukemia (intraperitoneal) in B6D2F1 (BDF1) mice
Conditions: endpoint: mean survival time, higher = longer survival
Summary of the method: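 Transplanted-tumor mice were given test agent; controls received vehicle only. Survival readings from the two groups were divided (treated over control).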

[1] = dose: 100.0 mg/kg/injection, schedule: Q04DX003 (ip), vehicle: saline
[2] = dose: 200.0 mg/kg/injection, schedule: Q04DX003 (ip), vehicle: saline
[3] = dose: 100.0 mg/kg/injection, schedule: Q01DX001 (ip), vehicle: carboxymethylcellulose (CMC)
[4] = dose: 200.0 mg/kg/injection, schedule: Q01DX001 (ip), vehicle: carboxymethylcellulose (CMC)
[5] = dose: 100.0 mg/kg/injection, schedule: Q01DX009 (ip), vehicle: saline with Tween-80
[6] = dose: 100.0 mg/kg/injection, schedule: Q04DX003 (ip), vehicle: saline with Tween-80
[7] = dose: 200.0 mg/kg/injection, schedule: Q01DX009 (ip), vehicle: saline with Tween-80
[8] = dose: 200.0 mg/kg/injection, schedule: Q04DX003 (ip), vehicle: saline with Tween-80
[9] = dose: 400.0 mg/kg/injection, schedule: Q01DX009 (ip), vehicle: saline with Tween-80
[10] = dose: 400.0 mg/kg/injection, schedule: Q04DX003 (ip), vehicle: saline with Tween-80
[11] = dose: 100.0 mg/kg/injection, schedule: Q01DX001 (ip), vehicle: saline
[12] = dose: 200.0 mg/kg/injection, schedule: Q01DX001 (ip), vehicle: saline
[13] = dose: 400.0 mg/kg/injection, schedule: Q01DX001 (ip), vehicle: saline

Measured: T/C

COc1cc2c(cc1OC)C(CN)C2 (stereo not given)
inactive: dose: 50.0 mg/kg/injection, schedule: Q01DX009 (ip), vehicle: saline 101 % of control | dose: 100.0 mg/kg/injection, schedule: Q01DX009 (ip), vehicle: saline 103 % of control | [1] 116 % of control | dose: 200.0 mg/kg/injection, schedule: Q01DX009 (ip), vehicle: saline 89 % of control | [2] 119 % of control

CCOC(=O)/C=C/C(=O)N(C)c1ccccc1
inactive: dose: 100.0 mg/kg/injection, schedule: Q01DX001 (ip), vehicle: other 100 % of control | dose: 200.0 mg/kg/injection, schedule: Q01DX001 (ip), vehicle: other 100 % of control | dose: 400.0 mg/kg/injection, schedule: Q01DX001 (ip), vehicle: other 108 % of control

CCC(C)(C)c1cccc(C(=O)O)c1O
inactive: [3] 104 % of control | [4] 93 % of control

Cc1ccc(S(=O)(=O)OCC2OC(n3cnc4c(NC=O)ncnc43)C(OC=O)C2OC=O)cc1 (stereo not given)
inactive: dose: 50.0 mg/kg/injection, schedule: Q01DX009 (ip), vehicle: gum acacia 115 % of control | dose: 100.0 mg/kg/injection, schedule: Q01DX005 (ip), vehicle: saline 105 % of control | dose: 100.0 mg/kg/injection, schedule: Q01DX009 (ip), vehicle: gum acacia 104 % of control | dose: 200.0 mg/kg/injection, schedule: Q01DX009 (ip), vehicle: gum acacia 100 % of control

CCCCCC(C)O[Si](C)c1cccc2ccccc12 (stereo not given)
inactive: [5] 98 % of control | [6] 92 % of control | [7] 93 % of control | [8] 92 % of control | [9] 104 % of control | [10] 101 % of control

COC(=O)C1=C(C(=O)OC)C2C=CC1C1(C)N=C(OC)C21C (stereo not given)
inactive: dose: 100.0 mg/kg/injection, schedule: Q04DX002 (ip), vehicle: saline with Tween-80 100 % of control | dose: 200.0 mg/kg/injection, schedule: Q04DX002 (ip), vehicle: saline with Tween-80 100 % of control | dose: 400.0 mg/kg/injection, schedule: Q04DX002 (ip), vehicle: saline with Tween-80 102 % of control

CCCCCCCCCCCCOc1ccc(C=Nc2ccc(C)cc2)cc1
inactive: dose: 100.0 mg/kg/injection, schedule: Q04DX002 (ip), vehicle: Klucel (hydroxypropylcellulose) (HPC) 109 % of control | dose: 200.0 mg/kg/injection, schedule: Q04DX002 (ip), vehicle: Klucel (hydroxypropylcellulose) (HPC) 109 % of control | dose: 400.0 mg/kg/injection, schedule: Q04DX002 (ip), vehicle: Klucel (hydroxypropylcellulose) (HPC) 95 % of control

CCOC(=O)CNC(=O)Nc1cccc(F)c1
inactive: [5] 103 % of control | [7] 102 % of control | [9] 96 % of control

CCCC(=O)N1C(C)CCCC1C (stereo not given)
inactive: dose: 100.0 mg/kg/injection, schedule: Q04DX002 (ip), vehicle: saline 117 % of control | dose: 200.0 mg/kg/injection, schedule: Q04DX002 (ip), vehicle: saline 101 % of control | dose: 400.0 mg/kg/injection, schedule: Q04DX002 (ip), vehicle: saline 93 % of control

CC1(C)OC(COS(C)(=O)=O)C2OC(C)(C)OC(COS(C)(=O)=O)C2O1 (stereo not given)
inactive: [3] 104 % of control | [4] 101 % of control | dose: 400.0 mg/kg/injection, schedule: Q01DX001 (ip), vehicle: carboxymethylcellulose (CMC) 104 % of control

CCOC(=O)NCCCCN(C(C)=O)n1cnc2c(SC)ncnc21
inactive: dose: 12.5 mg/kg/injection, schedule: Q04DX002 (ip), vehicle: saline with Tween-80 100 % of control | dose: 25.0 mg/kg/injection, schedule: Q04DX002 (ip), vehicle: saline with Tween-80 94 % of control | dose: 50.0 mg/kg/injection, schedule: Q04DX002 (ip), vehicle: saline with Tween-80 97 % of control

CO[C@@H]1[C@@H](OC2OC(C)C(OC3CC(C)(O)C(OC(=O)CC(C)C)C(C)O3)C(N(C)C)C2O)[C@@H](CC=O)C[C@@H](C)C(=O)/C=C/C2O[C@H]2C[C@@H](C)OC(=O)C[C@H]1OC(C)=O (stereo not given in full)
inactive: dose: 50.0 mg/kg/injection, schedule: Q01DX Z (ip), vehicle: other 103 % of control | dose: 100.0 mg/kg/injection, schedule: Q01DX001 (ip), vehicle: water 108 % of control | dose: 100.0 mg/kg/injection, schedule: Q01DX015 (ip), vehicle: water 102 % of control | dose: 100.0 mg/kg/injection, schedule: Q01DX Z (ip), vehicle: other 110 % of control | dose: 100.0 mg/kg/injection, schedule: Q#A X030 (ip), vehicle: water 108 % of control and 92 % of control | dose: 150.0 mg/kg/injection, schedule: Q01DX Z (ip), vehicle: other 105 % of control | dose: 150.0 mg/kg/injection, schedule: Q#A X030 (ip), vehicle: water 97 % of control | dose: 200.0 mg/kg/injection, schedule: Q01DX001 (ip), vehicle: water 106 % of control | dose: 200.0 mg/kg/injection, schedule: Q01DX015 (ip), vehicle: water 118 % of control | dose: 200.0 mg/kg/injection, schedule: Q01DX Z (ip), vehicle: methylcellulose (MC) 118 % of control | dose: 200.0 mg/kg/injection, schedule: Q01DX Z (ip), vehicle: other 105 % of control | dose: 200.0 mg/kg/injection, schedule: Q#A X030 (ip), vehicle: water 118 % of control | dose: 250.0 mg/kg/injection, schedule: Q01DX Z (ip), vehicle: methylcellulose (MC) 118 % of control | dose: 250.0 mg/kg/injection, schedule: Q01DX Z (ip), vehicle: other 115 % of control | dose: 300.0 mg/kg/injection, schedule: Q01DX015 (ip), vehicle: water 101 % of control and 118 % of control | dose: 300.0 mg/kg/injection, schedule: Q01DX Z (ip), vehicle: methylcellulose (MC) 116 % of control | dose: 350.0 mg/kg/injection, schedule: Q01DX Z (ip), vehicle: methylcellulose (MC) 116 % of control | dose: 400.0 mg/kg/injection, schedule: Q01DX001 (ip), vehicle: water 101 % of control | dose: 400.0 mg/kg/injection, schedule: Q01DX015 (ip), vehicle: water 87 % of control | dose: 600.0 mg/kg/injection, schedule: Q01DX001 (ip), vehicle: water 110 % of control

CN1C(=O)C(Br)=C(Br)C1(O)c1cccnc1 (stereo not given)
inactive: dose: 50.0 mg/kg/injection, schedule: Q01DX001 (ip), vehicle: saline 104 % of control | [11] 104 % of control | [12] 95 % of control | [13] 98 % of control

COc1c([N+](=O)[O-])cc(C)nc1Cl
inactive: [11] 95 % of control | [12] 101 % of control | [13] 101 % of control

CCCCCCCC/C=C/CCCCCCCCNC(=O)NCCCl
inactive: [5] 95 % of control | [6] 87 % of control | [7] 92 % of control | [8] 87 % of control | [10] 94 % of control

O=C(O)C(Cc1ccc(O)cc1)c1ccccc1 (stereo not given)
inactive: [1] 98 % of control | [2] 94 % of control | dose: 400.0 mg/kg/injection, schedule: Q04DX003 (ip), vehicle: saline 96 % of control

COc1cc2c3c(c1)/C(=N\Nc1ccccc1)CCN3CCC2
inactive: dose: 6.25 mg/kg/injection, schedule: Q01DX009 (ip), vehicle: DMSO 90 % of control | dose: 12.5 mg/kg/injection, schedule: Q01DX009 (ip), vehicle: DMSO 91 % of control | dose: 25.0 mg/kg/injection, schedule: Q01DX009 (ip), vehicle: DMSO 93 % of control and 90 % of control | dose: 25.0 mg/kg/injection, schedule: Q04DX003 (ip), vehicle: DMSO 95 % of control | dose: 50.0 mg/kg/injection, schedule: Q04DX003 (ip), vehicle: DMSO 95 % of control | dose: 100.0 mg/kg/injection, schedule: Q04DX003 (ip), vehicle: DMSO 100 % of control | dose: 200.0 mg/kg/injection, schedule: Q04DX003 (ip), vehicle: gum acacia 92 % of control
